The text below walks through data of patent US9763938B2, “Substituted quinoxalines as positive allosteric modulators of mGluR4” (MERCK PATENT GMBH, priority 2013, dated 2017).

T1 sequence (Q14833 33-912): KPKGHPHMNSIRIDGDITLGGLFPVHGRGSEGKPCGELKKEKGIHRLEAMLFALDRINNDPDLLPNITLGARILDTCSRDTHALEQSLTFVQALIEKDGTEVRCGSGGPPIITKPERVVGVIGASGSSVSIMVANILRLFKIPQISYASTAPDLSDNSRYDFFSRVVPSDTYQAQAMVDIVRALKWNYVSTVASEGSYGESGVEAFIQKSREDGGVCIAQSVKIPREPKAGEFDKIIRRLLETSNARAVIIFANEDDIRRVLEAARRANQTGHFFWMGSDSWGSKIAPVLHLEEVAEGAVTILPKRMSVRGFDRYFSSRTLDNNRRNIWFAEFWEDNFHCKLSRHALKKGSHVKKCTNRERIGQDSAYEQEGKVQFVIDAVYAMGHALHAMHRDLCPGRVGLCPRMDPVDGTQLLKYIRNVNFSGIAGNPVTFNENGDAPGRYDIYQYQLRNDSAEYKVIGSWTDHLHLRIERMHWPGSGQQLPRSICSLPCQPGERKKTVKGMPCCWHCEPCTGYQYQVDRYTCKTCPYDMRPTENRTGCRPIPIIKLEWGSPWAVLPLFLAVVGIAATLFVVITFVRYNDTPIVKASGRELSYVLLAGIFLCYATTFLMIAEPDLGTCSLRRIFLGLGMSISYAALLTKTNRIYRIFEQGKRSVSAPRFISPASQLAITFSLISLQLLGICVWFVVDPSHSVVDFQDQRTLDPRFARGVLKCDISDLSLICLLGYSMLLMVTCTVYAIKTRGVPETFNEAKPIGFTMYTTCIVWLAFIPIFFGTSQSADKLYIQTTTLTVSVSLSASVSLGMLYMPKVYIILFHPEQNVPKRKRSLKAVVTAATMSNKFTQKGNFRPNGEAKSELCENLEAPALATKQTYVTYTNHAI

The assay has as its target T1, hmGluR4 (Homo sapiens, UniProt Q14833).
T1 construct: host or cells: HEK293T
Put plainly: HEK-293 mGluR4 cells cAMP assay with EC20 L-glutamate (HTRF). The format is cell-based. The note with it: positive allosteric activity at EC20 L-glutamate, 10 μM forskolin, HEK293T mGluR4 cells, read-out: hrmGluR4/HEK293T-hmGluR4 (EC50). How it is done: HEK-293 mGluR4 Cells cAMP Assay with EC20 L-Glutamate
Using mGluR4 suspension cell format, 10 μM Forskolin (final conc.) used to induce the production of cAMP.
Test the positive allosteric activity of the compounds of the invention at EC20 (2.3 μM for mGluR4 and 4.3 μM for mGluR6) L-Glutamate,
cAMP dymanic2 kit is intended for the direct quantitative determination of cAMP and its principle is based on HTRF technology.
Cell Preparation: split cells at 80%-90% confluence. The following day, rinse the cells with DMEM without GlutaMax and change to Glutamine Starvation Media. Incubate overnight.
Prepare compound plate: Perform compound serial dilution (uses Matrix 4341 plate), using the Bravo liquid handling platform protocol (compound serial dilution) which adds DMSO to columns 1-24 (except cols. 3 and 13). Serial dilute compounds located in columns 3 and 13 at a 1:3 ratio; 10 points (10 ul of 3 mM compound into 20 ul DMSO). Use the Bravo liquid handling platform to transfer 1 ul from the serial dilution plate into Matrix 4314 plate to create stamp plates.
Dilute 20 mM Forskolin (in DMSO) stock solution in HBSS buffer to make a 20 uM solution (forskolin buffer; 2× solution). To the forskolin buffer, add glutamate to a concentration of 8 uM (compound dilution buffer; 2×EC20 glutamate and forskolin).
Using a multidrop, add 50 ul/well of compound dilution buffer to columns 1-22 of the 2 ul compound stamp plate. Columns 23 and 24 receive forskolin buffer containing 400 uM glutamate (EC100 glutamate; 2× solution). Columns 1 and 2 receive compound dilution buffer containing EC20 glutamate, which is the basal control. Add a glutamate dose response to row P of compound plate. Prepare the dose response by serial diluting glutamate at a 1:3 ratio in forskolin buffer starting at 2 mM glutamate (2×). Dilute the glutamate 9 times and transfer to compound plate.
Harvest cells: Rinse cells with pre-warmed HBSS-10 mM HEPES (without Ca Mg) and dissociate the cells from the flask with versene. Centrifuge the cells, remove the supernatant and suspend in pre-warmed HBSS+10 mM Hepes. Count the cells and centrifuge. Remove the supernatant and suspend the cells in HBSS+Hepes (with Ca Mg) at a density of 400,000 cells/ml.
Dispense 5 ul from the diluted compound plate into Greiner low volume cell plate using the Bravo liquid handling platform. Using a Multidrop with the small tubing cassette, dispense 5 ul of cells (2000 cells/well) onto the compounds contained in the low volume plates. Incubate the cells at 37° C., 5% CO2 for 30 minutes in the incubator.
Prepare cAMP-d2 and anti-cAMP-Crytate according to the instructions for the two step assay (see Cisbio manual) and add 10 ul of the mixed reagent to each well of the assay plate using the Multidrop. Incubate at room temperature for 60 minutes and read on the Envision plate reader using the mGluR low volume cAMP HTRF 384 well protocol. The readout is the calculated fluorescence ratio ([…]*10000).
For orientation: Cyclic AMP is a second messenger, typically raised through Gs and lowered through Gi signalling.
With `c1ccc(-c2nc3ccccc3nc2-c2ccnc3ccccc23)cc1` [Compound 1, 2-Phenyl-3-quinolin-4-yl-quinoxaline], the EC50 is under 1000 nM.
Turning to `Oc1ccc(-c2nc3ccccc3nc2-c2ccccc2)cc1` [Compound 2, 4-(3-Phenyl-quinoxalin-2-yl)-phenol], the EC50 was under 1000 nM.
The result for `OC1CCN(c2nc3ccccc3nc2-c2ccccc2)CC1` [Compound 3, 1-(3-Phenyl-quinoxalin-2-yl)-piperidin-4-ol] reads under 1000 nM; that for `Fc1ccc(-c2nc3ccccc3nc2-c2cccc3[nH]ccc23)cc1F` [Compound 4, 2-(3,4-Difluoro-phenyl)-3-(1H-indol-4-yl)-quinoxaline], 1000 to 10000 nM.
The result for `Cc1cccc2nc(-c3ccccc3)c(-c3ccccc3)nc12` [Compound 5, 5-Methyl-2,3-diphenyl-quinoxaline] reads 1000 to 10000 nM; that for `c1ccc(-c2nc3ccccc3nc2-c2cccc3cccnc23)cc1` [Compound 6, 2-Phenyl-3-quinolin-8-yl-quinoxaline], 1000 to 10000 nM.
As for `CC(=O)c1cccc2nc(-c3ccccc3)c(-c3ccccc3)nc12` [Compound 7, 1-(2,3-Diphenyl-quinoxalin-5-yl)-ethanone], the figure is 1000 to 10000 nM; as for `c1ccc(-c2nc3c(nc2-c2ccccc2)CCCC3)cc1` [Compound 8, 2,3-Diphenyl-5,6,7,8-tetrahydro-quinoxaline], 1000 to 10000 nM.
`Fc1ccccc1-c1nc2ccccc2nc1-c1ccccc1F` [Compound 9, 2,3-Bis-(2-fluoro-phenyl)-quinoxaline]: the EC50 lay within 1000 to 10000 nM.
The result for `Fc1ccc(-c2nc3ccccc3nc2-c2ccccc2)cc1F` [Compound 10, 2-(3,4-Difluoro-phenyl)-3-phenyl-quinoxaline] reads 1000 to 10000 nM.
